Our source for the EC50 values is US20260374754A1, “N-((ISOQUINOLIN-6-YL)METHYL)-1H-PYRAZOLE-4-CARBOXAMIDE DERIVATIVES AS PLASMA KALLIKREIN INHIBITORS FOR THE TREATMENT OF HEREDITARY ANGIODEMA” (Takeda Pharmaceutical Company Limited, priority 2022, published 2026).

Structures can show the parent of a compound that is named as a salt. Some results are limits rather than exact numbers.

The target of this assay is human activated kallikrein enzyme (Homo sapiens, UniProt P03952). The assay can be described thus: Inhibition of human activated plasma kallikrein, fluorogenic PFR-AMC substrate, 500 pM enzyme format. Type of assay: biochemical. The note with it: 500 pM activated kallikrein; 300 μM PFR-AMC; 30 min preincubation; 10 min room temperature; pH 7.5; read-out: Primary Dose Response Assay: Average EC50. Put shortly:
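500 pM activated kallikrein preincubated 30 min at room temperature with inhibitors in pH 7.5 Tris/EDTA/NaCl buffer with PEG-400 and Triton X-100. Reaction started with 300 μM PFR-AMC, run 10 min at room temperature; AMC fluorescence read at ex 380/em 460 nm.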

Chain of human activated kallikrein enzyme (P03952 391-638 limits assumed): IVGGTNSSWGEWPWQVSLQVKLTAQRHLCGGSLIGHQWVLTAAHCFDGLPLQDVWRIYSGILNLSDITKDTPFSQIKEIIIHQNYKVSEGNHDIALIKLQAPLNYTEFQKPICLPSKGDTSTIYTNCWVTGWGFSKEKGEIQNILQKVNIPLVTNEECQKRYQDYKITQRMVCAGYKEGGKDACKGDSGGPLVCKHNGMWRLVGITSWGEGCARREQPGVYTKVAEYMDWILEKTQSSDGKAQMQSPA
Chain of human activated kallikrein enzyme (P03952 20-390 partner limits assumed): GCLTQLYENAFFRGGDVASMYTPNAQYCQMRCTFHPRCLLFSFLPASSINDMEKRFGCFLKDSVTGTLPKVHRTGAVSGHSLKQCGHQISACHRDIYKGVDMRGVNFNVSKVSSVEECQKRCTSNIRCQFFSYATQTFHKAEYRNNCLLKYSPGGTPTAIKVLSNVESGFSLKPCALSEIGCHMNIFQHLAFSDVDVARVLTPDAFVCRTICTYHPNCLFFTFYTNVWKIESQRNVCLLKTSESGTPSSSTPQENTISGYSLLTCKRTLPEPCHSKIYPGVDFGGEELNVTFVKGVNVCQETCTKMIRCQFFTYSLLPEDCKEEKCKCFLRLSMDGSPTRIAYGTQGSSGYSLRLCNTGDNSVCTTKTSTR

Usually EC50 stands for the concentration giving half of the maximal effect. For the compound `Cc1cc2c(N)nccc2c(C)c1CNc1nccc2cn(Cc3cn4cc(C5CC5)cnc4n3)nc12` [Example 264, 6-(((2-((6-cyclopropylimidazo[1,2-a]pyrimidin-2-yl)methyl)-2H-pyrazolo[3,4-c]pyridin-7-yl)amino)methyl)-5,7-dimethylisoquinolin-1-amine], the EC50 was < 1 nM.

For the compound `Cc1cc2c(N)nccc2c(C)c1CNc1nccc2c1cnn2Cc1cn2cc(C3CC3)ccc2n1` [Example 266], the EC50 lay within 100 to 1000 nM.

Consider `Cc1cc2c(N)nccc2c(C)c1CNc1cc2nn(Cc3cn4cc(C5CC5)ccc4n3)cc2cn1` [Example 269, 6-(((2-((6-cyclopropylimidazo[1,2-a]pyridin-2-yl)methyl)-2H-pyrazolo[4,3-c]pyridin-6-yl)amino)methyl)-5,7-dimethylisoquinolin-1-amine], for which the EC50 lay within 10 to 100 nM.

With `CCOC(=O)CCc1cc(C2CC2)cc2cc(COc3cc(NCc4c(C)cc5c(N)nccc5c4C)ncn3)nn12` [Example 270, ethyl 3-(2-(((6-(((1-amino-5,7-dimethylisoquinolin-6-yl)methyl)amino)pyrimidin-4-yl)oxy)methyl)-5-cyclopropylpyrazolo[1,5-a]pyridin-7-yl)propanoate], the EC50 was 1 to 10 nM.

With `Cc1cc2c(N)nccc2c(C)c1CNc1nccc2cn(Cc3cn4cc(C5CC5)ccc4n3)nc12` [Example 271, 6-(((2-((6-cyclopropylimidazo[1,2-a]pyridin-2-yl)methyl)-2H-pyrazolo[3,4-c]pyridin-7-yl)amino)methyl)-5,7-dimethylisoquinolin-1-amine], the EC50 was < 1 nM.

Regarding `CCOC(=O)CCc1nc(NCc2c(C)cc3c(N)nccc3c2C)cc(OCc2cn3cc(C4CC4)ccc3n2)n1` [Example 274, ethyl 3-(4-(((1-amino-5,7-dimethylisoquinolin-6-yl)methyl)amino)-6-((6-cyclopropylimidazo[1,2-a]pyridin-2-yl)methoxy)pyrimidin-2-yl)propanoate], the EC50 lay in the range of 1 to 10 nM.

Turning to `Cc1cc2c(N)nccc2c(C)c1CNc1cc(OC(C)c2ccc(Cn3cccn3)cc2)cnn1` (stereo not drawn) [Example 275, 6-(((5-(1-(4-((1H-pyrazol-1-yl)methyl)phenyl)ethoxy)pyridazin-3-yl)amino)methyl)-5,7-dimethylisoquinolin-1-amine], the EC50 was < 1 nM.

In the case of `Cc1cc2c(N)nccc2c(C)c1CNc1cc(OCc2ccc(CCn3cccn3)cc2)cnn1` [Example 278, 6-(((5-((4-(2-(1H-pyrazol-1-yl)ethyl)benzyl)oxy)pyridazin-3-yl)amino)methyl)-5,7-dimethylisoquinolin-1-amine], the EC50 fell in the range of 1 to 10 nM.

`Cc1cc2c(N)nccc2c(C)c1CNc1ccnc(OCc2cn3cc(C4CC4)ccc3n2)c1` [Example 279, 6-(((2-((6-cyclopropylimidazo[1,2-a]pyridin-2-yl)methoxy)pyridin-4-yl)amino)methyl)-5,7-dimethylisoquinolin-1-amine]: the EC50 was 1 to 10 nM.

Regarding `Cc1cc2c(N)nccc2c(C)c1CNc1cc(OCc2nc3cc(C4CC4)ccc3s2)ncn1` [Example 282, 6-(((6-((5-cyclopropylbenzo[d]thiazol-2-yl)methoxy)pyrimidin-4-yl)amino)methyl)-5,7-dimethylisoquinolin-1-amine], the EC50 was in the range of 100 to 1000 nM.

Regarding `Cc1cc2c(N)nccc2c(C)c1CNc1cc2c(cn1)c(F)cn2Cc1cc2cc(C3CC3)cnc2s1` [Example 286, 6-(((1-((5-cyclopropylthieno[2,3-b]pyridin-2-yl)methyl)-3-fluoro-1H-pyrrolo[3,2-c]pyridin-6-yl)amino)methyl)-5,7-dimethylisoquinolin-1-amine], the EC50 fell in the range of 1 to 10 nM.

Regarding `Cc1cc2c(N)nccc2c(C)c1CNc1nccnc1OCc1cn2cc(C3CC3)ccc2n1` [Example 287, 6-(((3-((6-cyclopropylimidazo[1,2-a]pyridin-2-yl)methoxy)pyrazin-2-yl)amino)methyl)-5,7-dimethylisoquinolin-1-amine], the EC50 lay within 10 to 100 nM.

On to `Cc1cc2c(N)nccc2c(C)c1CNc1ncccc1OCc1cn2cc(C3CC3)ccc2n1` [Example 289, 6-(((3-((6-cyclopropylimidazo[1,2-a]pyridin-2-yl)methoxy)pyridin-2-yl)amino)methyl)-5,7-dimethylisoquinolin-1-amine], for which the half-maximal effective concentration (EC50) was in the range of 100 to 1000 nM.

Consider `CCOC(=O)CCc1nc(NCc2c(C)cc3c(N)nccc3c2C)cc(OCc2cn3cc(C4CC4)cnc3n2)n1` [Example 291, ethyl 3-(4-(((1-amino-5,7-dimethylisoquinolin-6-yl)methyl)amino)-6-((6-cyclopropylimidazo[1,2-a]pyrimidin-2-yl)methoxy)pyrimidin-2-yl)propanoate], for which the EC50 fell in the range of 1 to 10 nM.

Regarding `CCOC(=O)CCc1nc(NCc2c(C)cc3c(N)nccc3c2C)cc(OCc2nc3ccc(C4CC4)cn3n2)n1` [Example 292, ethyl 3-(4-(((1-amino-5,7-dimethylisoquinolin-6-yl)methyl)amino)-6-((6-cyclopropyl-[1,2,4]triazolo[1,5-a]pyridin-2-yl)methoxy)pyrimidin-2-yl)propanoate], the half-maximal effective concentration (EC50) is 10 to 100 nM.

Regarding `Cc1cc2c(N)nccc2c(C)c1CNc1cc(OCc2cn3cc(C4CC4)ccc3n2)nc(CCC(=O)O)n1` [Example 293, 3-(4-(((1-amino-5,7-dimethylisoquinolin-6-yl)methyl)amino)-6-((6-cyclopropylimidazo[1,2-a]pyridin-2-yl)methoxy)pyrimidin-2-yl)propanoic acid], the EC50 is < 1 nM.

Regarding `Cc1cc2c(N)nccc2c(C)c1CNc1cc(OCc2cn3cc(C4CC4)cnc3n2)nc(CCC(=O)O)n1` [Example 294, 3-(4-(((1-amino-5,7-dimethylisoquinolin-6-yl)methyl)amino)-6-((6-cyclopropylimidazo[1,2-a]pyrimidin-2-yl)methoxy)pyrimidin-2-yl)propanoic acid], the EC50 is < 1 nM.

As for `Cc1cc2c(N)nccc2c(C)c1CNc1cc(OCc2nc3ccc(C4CC4)cn3n2)nc(CCC(=O)O)n1` [Example 295, 3-(4-(((1-amino-5,7-dimethylisoquinolin-6-yl)methyl)amino)-6-((6-cyclopropyl-[1,2,4]triazolo[1,5-a]pyridin-2-yl)methoxy)pyrimidin-2-yl)propanoic acid], the EC50 was in the range of 1 to 10 nM.

`Cc1cc2c(N)nccc2c(C)c1CNc1cc(OCc2ccc(-n3ccccc3=O)cc2)ncn1` [Example 296, 1-(4-(((6-(((1-amino-5,7-dimethylisoquinolin-6-yl)methyl)amino)pyrimidin-4-yl)oxy)methyl)phenyl)pyridin-2(1H)-one]: the EC50 was 10 to 100 nM.

Turning to `Cc1cc2c(N)nccc2c(C)c1CNc1cc(OCc2ccc(Cc3ccn(C)n3)cc2)ncn1` [Example 297, 5,7-dimethyl-6-(((6-((4-((1-methyl-1H-pyrazol-3-yl)methyl)benzyl)oxy)pyrimidin-4-yl)amino)methyl)isoquinolin-1-amine, formic acid salt], the EC50 was in the range of 1 to 10 nM.

With `Cc1cc2c(N)nccc2c(C)c1CNc1cc(OCc2cnc(N3CCCC3)nc2)ncn1` [Example 298, 5,7-dimethyl-6-(((6-((2-(pyrrolidin-1-yl)pyrimidin-5-yl)methoxy)pyrimidin-4-yl)amino)methyl)isoquinolin-1-amine], the EC50 lay in the range of 10 to 100 nM.

`Cc1cc2c(N)nccc2c(C)c1CNc1cc(OCc2ccc(Cc3cccn(C)c3=O)cc2)ncn1` [Example 299, 3-(4-(((6-(((1-amino-5,7-dimethylisoquinolin-6-yl)methyl)amino)pyrimidin-4-yl)oxy)methyl)benzyl)-1-methylpyridin-2(1H)-one]: the EC50 is 1 to 10 nM.

As to `Cc1cc2c(N)nccc2c(C)c1CNc1cc(OCc2ccc(Cn3cccn3)nc2)ncn1` [Example 300, 6-(((6-((6-((1H-pyrazol-1-yl)methyl)pyridin-3-yl)methoxy)pyrimidin-4-yl)amino)methyl)-5,7-dimethylisoquinolin-1-amine], the EC50 was 100 to 1000 nM.

In the case of `Cc1cc2c(N)nccc2c(C)c1CNc1cc(OCc2ccc(Cn3ccccc3=O)cc2)ncn1` [Example 301, 1-(4-(((6-(((1-amino-5,7-dimethylisoquinolin-6-yl)methyl)amino)pyrimidin-4-yl)oxy)methyl)benzyl)pyridin-2(1H)-one], the EC50 was < 1 nM.

In the case of `Cc1cc2c(N)nccc2c(C)c1CNc1cc(OCc2ccc(CN3CCOCC3=O)cc2)ncn1` [Example 302, 4-(4-(((6-(((1-amino-5,7-dimethylisoquinolin-6-yl)methyl)amino)pyrimidin-4-yl)oxy)methyl)benzyl)morpholin-3-one, trifluoroacetic acid salt], the 50% effective concentration (EC50) is 1 to 10 nM.

In the case of `Cc1cc2c(N)nccc2c(C)c1CNc1cc(OCc2ccc(Cn3cccc(C4CC4)c3=O)cc2)ncn1` [Example 303, 1-(4-(((6-(((1-amino-5,7-dimethylisoquinolin-6-yl)methyl)amino)pyrimidin-4-yl)oxy)methyl)benzyl)-3-cyclopropylpyridin-2(1H)-one, formic acid salt], the concentration giving a half-maximal response (EC50) was 1 to 10 nM.

With `Cc1cc2c(N)nccc2c(C)c1CNc1cc(OCc2cn3c(C)c(Cl)ccc3n2)ncn1` [Example 304, 6-(((6-((6-chloro-5-methylimidazo[1,2-a]pyridin-2-yl)methoxy)pyrimidin-4-yl)amino)methyl)-5,7-dimethylisoquinolin-1-amine], the concentration for a half-maximal effect (EC50) is < 1 nM.

Take `Cc1cc2c(N)nccc2c(C)c1CNc1cc(NCc2ccc3ccccc3n2)ncn1` [Example 306, N^4-((1-amino-5,7-dimethylisoquinolin-6-yl)methyl)-N^6-(quinolin-2-ylmethyl)pyrimidine-4,6-diamine]: the EC50 lay in the range of 10 to 100 nM.

Turning to `COc1ccc2nc(CNc3cc(NCc4c(C)cc5c(N)nccc5c4C)ncn3)ccc2c1` [Example 307, N^4-((1-amino-5,7-dimethylisoquinolin-6-yl)methyl)-N^6-((6-methoxyquinolin-2-yl)methyl)pyrimidine-4,6-diamine], the EC50 lay within 10 to 100 nM.

Consider `Cc1cc2c(N)nccc2c(C)c1CNc1cc(N(C)Cc2ccc3ncccc3c2)ncn1` [Example 308, N^4-((1-amino-5,7-dimethylisoquinolin-6-yl)methyl)-N^6-methyl-N^6-(quinolin-6-ylmethyl)pyrimidine-4,6-diamine], for which the EC50 fell in the range of 10 to 100 nM.
